# In patent publication US20120270769A1, “METHODS OF USING MACROCYCLIC INHIBITORS OF SERINE PROTEASE ENZYMES” (priority 2009, published 2012):
# Target: T1, human matriptase (Homo sapiens, UniProt Q9Y5Y6)
# T1 sequence (Q9Y5Y6 1-855): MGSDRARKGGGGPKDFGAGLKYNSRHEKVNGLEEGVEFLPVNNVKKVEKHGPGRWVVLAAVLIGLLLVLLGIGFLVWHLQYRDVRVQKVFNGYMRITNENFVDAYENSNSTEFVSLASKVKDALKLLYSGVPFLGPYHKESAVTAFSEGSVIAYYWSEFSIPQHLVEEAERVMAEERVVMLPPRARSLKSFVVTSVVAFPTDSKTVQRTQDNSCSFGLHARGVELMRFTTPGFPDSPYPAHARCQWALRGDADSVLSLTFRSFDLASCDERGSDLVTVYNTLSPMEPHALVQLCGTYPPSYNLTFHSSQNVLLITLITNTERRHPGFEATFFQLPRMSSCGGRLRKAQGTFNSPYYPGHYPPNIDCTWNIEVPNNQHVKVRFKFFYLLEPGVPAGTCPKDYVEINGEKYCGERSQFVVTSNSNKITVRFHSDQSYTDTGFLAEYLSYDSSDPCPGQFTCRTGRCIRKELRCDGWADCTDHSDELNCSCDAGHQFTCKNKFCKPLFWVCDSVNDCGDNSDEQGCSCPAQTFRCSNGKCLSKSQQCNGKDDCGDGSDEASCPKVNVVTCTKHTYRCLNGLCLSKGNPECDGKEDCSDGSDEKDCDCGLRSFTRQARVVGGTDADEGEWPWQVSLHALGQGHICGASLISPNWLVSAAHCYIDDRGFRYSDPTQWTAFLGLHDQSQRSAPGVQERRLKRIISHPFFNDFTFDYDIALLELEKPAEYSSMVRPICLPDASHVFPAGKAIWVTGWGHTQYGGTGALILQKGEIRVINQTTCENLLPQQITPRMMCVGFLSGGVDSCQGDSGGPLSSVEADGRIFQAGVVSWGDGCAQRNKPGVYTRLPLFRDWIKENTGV
# Test: Assay for inhibition of matriptase (fluorogenic AMC substrate)
# Type: biochemical
# Conditions: calculated from velocity by nonlinear regression, competitive inhibition model (GraphPad Prism 5)
# Description: The following describes an assay for matriptase as a representative serine protease and is based upon reported methods. (Désilets, A.; Longpré, J.-M.; Beaulieu, M.-E.; Leduc, R. FEBS Lett. 2006, 580, 2227-2232.) Similar assays are applicable and available for other serine proteases.
# Enzyme activities were monitored by measuring the release of fluorescence from AMC-coupled peptides (excitation, 360 nm; emission, 441 nm) in a FLX-800 TBE microplate reader (Bio-Tek Instruments, Winooski, Vt., USA). The purified human matriptase was active site titrated with the burst titrant 4-methylumbelliferyl-p-guanidino benzoate (MUGB). Enzymatic assays with matriptase were performed in Tris HCl 100 mM containing 500 µg/mL BSA at pH 9. Human soluble furin was expressed, purified, titrated and assayed as described in the literature (Denault, J. B.; Lazure, C.; Day, R; Leduc, R. Protein Expr. Purif. 2000, 19, 113-124.) The purified HAT protein was active-site titrated with MUGB. Assays with HAT were performed in 50 mM Tris-HCl at pH 8.6.
# Enzymes were diluted to concentrations ranging from 4 to 12.5 nM for furin, from 2 to 7 nM for matriptase and 20 pM for HAT and incubated with either 10 μM (for initial screening) […] or appropriate dilutions (for kinetic analysis), for example 0, 500, 1000, 2000 nM or 0, 250, 500, 1000, 2500, 5000 nM, of the test compound for 15 min at RT. Residual enzyme activity was measured by following the hydrolysis of a fluorogenic substrate (4 μM Boc-Arg-Val-Arg-Arg-AMC for furin, Boc-Gln-Ala-Arg-AMC for matriptase and 4 μM Boc-Val-Pro-Arg-AMC for HAT) (Bachem Bioscience, King of Prussia, Pa., USA). Saturation curves were performed in the presence of increasing concentrations of test compounds. Data from three independent experiments or more were typically averaged and residual velocities were plotted as a function of test compound concentration. Data were fitted by non-linear regression analysis to Equation (1) (Bieth, J. G. Methods Enzymol. 1995, 248, 59-84.) using the Enzfitter software (Biosoft, Ferguson, Mo., USA).
# vi/v0=1−{([E]0+[I]0+Ki(app))−(([E]0+[I]0+Ki(app))^2−4[E]0[I]0)^1/2}/2[E]0 Equation (1): […]
# where v0 and vi are the steady-state rates of substrate hydrolysis in the absence and presence of inhibitor, respectively, [E]0, the initial concentration of enzyme, [I]0, the initial concentration of inhibitor and Ki(app) the substrate-dependent equilibrium dissociation constant. The substrate-independent constant Ki was calculated using Equation (2) (Bieth, J. G. Methods Enzymol. 1995, 248, 59-84.),
# Kt=Ki(app)(1+[S]0/Km) Equation (2): […]
# The table presents results for matriptase inhibition for representative compounds of the invention.
# Ki's can be calculated from the velocity using nonlinear regression analysis. The model used is a competitive enzyme inhibition equation where KmObs=Km*(1+[I]/Ki) and Y=Vmax*X/(KmObs+X). X is the substrate concentration. Y the velocity.
row,SMILES,Ki [µM]
1,C[C@@H]1C(=O)N[C@H](Cc2ccc(C(=N)N)cc2)C(=O)NCCCc2ccc(F)cc2OCCN[C@@H](C2CC2)C(=O)N1C [Compound 451],1.46
2,C[C@@H]1CN[C@@H](C2CC2)C(=O)N(C)[C@H](C)C(=O)N[C@H](Cc2ccc(C(=N)N)cc2)C(=O)NCCCc2ccccc2O1 [Compound 459],0.245

# Same assay, conditions: residual matriptase velocity with test compound, substrate Boc-Gln-Ala-Arg-AMC; method gives 10 μM for initial screening; lower = more inhibition
row,SMILES,Velocity (FU/min)
1,C[C@@H]1C(=O)N[C@H](Cc2ccc(C(=N)N)cc2)C(=O)NCCCc2ccc(F)cc2OCCN[C@@H](C2CC2)C(=O)N1C [Compound 451],1590
2,C[C@@H]1C(=O)N[C@@H](Cc2ccc(C(=N)N)cc2)C(=O)NCCCc2ccc(F)cc2OCCN[C@@H](C2CC2)C(=O)N1C [Compound 454],2190
3,C[C@H]1C(=O)N[C@H](Cc2ccc(C(=N)N)cc2)C(=O)NCCCc2ccc(F)cc2OCCN[C@@H](C2CC2)C(=O)N1C [Compound 455],2440
4,C[C@@H]1C(=O)N[C@H](Cc2ccc(C(=N)N)cc2)C(=O)NCCCc2ccc(F)cc2OCCN[C@H](C2CC2)C(=O)N1C [Compound 456],2250
5,C[C@@H]1CCc2ccc(F)cc2OCCN[C@@H](C2CC2)C(=O)N(C)[C@H](C)C(=O)N[C@H](Cc2ccc(C(=N)N)cc2)C(=O)N1 [Compound 457],1750
6,C[C@@H]1CN[C@@H](C2CC2)C(=O)N(C)[C@H](C)C(=O)N[C@H](Cc2ccc(C(=N)N)cc2)C(=O)NCCCc2ccc(F)cc2O1 [Compound 458],812
7,C[C@@H]1CN[C@@H](C2CC2)C(=O)N(C)[C@H](C)C(=O)N[C@H](Cc2ccc(C(=N)N)cc2)C(=O)NCCCc2ccccc2O1 [Compound 459],140
8,C[C@@H]1C(=O)N[C@H](Cc2ccc(C(=N)N)cc2)C(=O)NCCCc2ccc(C(=N)N)cc2OCCN[C@@H](C2CC2)C(=O)N1C [Compound 461],812
9,C[C@@H]1C(=O)N[C@H](Cc2ccc(C(=N)N)cc2)C(=O)NCCCc2ccccc2OCCN[C@@H](C2CC2)C(=O)N1C [Compound 464],1875
10,C[C@@H]1C(=O)N[C@H](Cc2ccc(C(=N)N)cc2)C(=O)NC/C=C/c2ccccc2OCCN[C@@H](C2CC2)C(=O)N1C [Compound 465],1125
11,C[C@@H]1NCCOc2cc(F)ccc2CCCNC(=O)[C@@H](Cc2ccc(C(=N)N)cc2)NC(=O)[C@@H](C)N(C)C1=O [Compound 467],2300
12,C[C@@H]1C(=O)N[C@H](Cc2ccc(C(=N)N)cc2)C(=O)NCCc2cccc(c2)CN[C@@H](C2CC2)C(=O)N1C [Compound 473],2375
13,C[C@@H]1C(=O)N[C@H](Cc2ccc(C(=N)N)cc2)C(=O)NCc2ccccc2Sc2ccccc2CN[C@@H](C2CC2)C(=O)N1C [Compound 475],2125
14,C[C@@H]1C(=O)N[C@H](Cc2ccc(C(=N)N)cc2)C(=O)NCCc2ccccc2CCCCN[C@@H](C2CC2)C(=O)N1C [Compound 478],2440
15,C[C@@H]1C(=O)N[C@H](Cc2ccc(C(=N)N)cc2)C(=O)NCCOc2cccc(c2)OCCN[C@@H](C2CC2)C(=O)N1C [Compound 479],2190
16,C[C@@H]1C(=O)N[C@H](Cc2ccc(C(=N)N)cc2)C(=O)NCCCC2CCCCC2OCCN[C@@H](C2CC2)C(=O)N1C (stereo partly drawn) [Compound 480],1875
17,C[C@@H]1C(=O)N[C@H](Cc2ccc(C(=N)N)cc2)C(=O)NCCc2ccccc2OCCN[C@@H](C2CC2)C(=O)N1C [Compound 481],1875
18,C[C@@H]1C(=O)N[C@H](Cc2ccc(C(=N)N)cc2)C(=O)NC/C=C/c2cccc(c2)OCCN[C@@H](C2CC2)C(=O)N1C [Compound 482],2500
19,C[C@@H]1C(=O)N[C@H](CCCCN)C(=O)NCCCc2ccc(F)cc2OCCN[C@@H](C2CC2)C(=O)N1C [Compound 485],2625
20,C[C@@H]1C(=O)N[C@H](CCCN)C(=O)NCCCc2ccc(F)cc2OCCN[C@@H](C2CC2)C(=O)N1C [Compound 487],2500
21,C[C@@H]1C(=O)N[C@H](CCCNC(=N)N)C(=O)NCCCc2ccc(F)cc2OCCN[C@@H](C2CC2)C(=O)N1C [Compound 488],2250
22,C[C@@H]1C(=O)N[C@H](CCC(N)=O)C(=O)NCCCc2ccc(F)cc2OCCN[C@@H](C2CC2)C(=O)N1C [Compound 490],2440
23,C[C@@H]1C(=O)N[C@H](CCCNC(N)=O)C(=O)NCCCc2ccc(F)cc2OCCN[C@@H](C2CC2)C(=O)N1C [Compound 491],2440
24,C[C@@H]1C(=O)N[C@H](CCCCNC(N)=O)C(=O)NCCCc2ccc(F)cc2OCCN[C@@H](C2CC2)C(=O)N1C [Compound 492],2440
25,C[C@@H]1C(=O)N[C@H](Cc2c[nH]cn2)C(=O)NCCCc2ccc(F)cc2OCCN[C@@H](C2CC2)C(=O)N1C [Compound 493],2700
26,C[C@@H]1C(=O)N[C@H](Cc2cccnc2)C(=O)NCCCc2ccc(F)cc2OCCN[C@@H](C2CC2)C(=O)N1C [Compound 494],2125
27,C[C@@H]1C(=O)N[C@H](Cc2ccncc2)C(=O)NCCCc2ccc(F)cc2OCCN[C@@H](C2CC2)C(=O)N1C [Compound 495],2700
28,C[C@@H]1C(=O)N[C@H](Cc2cscn2)C(=O)NCCCc2ccc(F)cc2OCCN[C@@H](C2CC2)C(=O)N1C [Compound 496],2700
29,C[C@@H]1CN[C@@H](C2CC2)C(=O)N(C)[C@H](C)C(=O)N[C@H](Cc2ccc(C(N)=O)cc2)C(=O)NCCCc2ccccc2O1 [Compound 498],580
30,C[C@@H]1C(=O)N[C@H](Cc2ccc(C(N)=O)cc2)C(=O)NCCCc2ccc(C(=N)N)cc2OCCN[C@@H](C2CC2)C(=O)N1C [Compound 499],937

# System: tumor metastasis
# Test: not given
# Conditions: cited from earlier work
row,SMILES,activity in an in vivo model of tumor metastasis
1,COC(=O)NC(CCC(=O)O)(Cc1cccc(C(=N)N)c1)C(=O)NCC(=O)N[C@H](C=O)CCCNC(=N)N (stereo partly drawn) [CVS-3983],has shown activity
